According to PubChem BioAssay AID434923 (Broad Institute, 2010):
Records with an inconclusive call do not appear. Activity calls are given as the source filed them.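 How the source made its calls: active means fitted EC50 at most tenfold above the highest tested dose; inconclusive means flat fit with 30 to 70% signal loss, or poor fit; inactive means the rest.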

The molecules below were run on NIH-3T3 fibroblasts viability, Alamar Blue fluorescence, 48 h (assay: mammalian cell viability loss with fluconazole – Alamar Blue fluorescence, cytotoxicity control for reversing antifungal drug resistance, dose response (AID 434923)).

Row | Compound | EC50
1 | CCc1ccc2c(c1)/C(=C/C(=O)c1cccs1)C(=O)N2 | 14 µM
2 | O=C(Nc1nnc(SCc2ccc(Cl)cc2)s1)c1ccc2ccccc2n1 | 12 µM
3 | Cc1nc2ccccc2cc1OCc1ccc(F)cc1 | > 26 µM (inactive)
4 | O=C(Nc1sc2c(c1C(=O)c1ccc(Cl)cc1)CCCC2)c1cccnc1 | > 26 µM (inactive)
5 | O=C(Oc1c(Cl)cc(Cl)c2cccnc12)c1cccs1 | 21.8 µM
6 | COc1ccc(-n2nc(C(=O)NCC(=O)N3CCN(c4ccccc4)CC3)c3ccccc3c2=O)c(OC)c1 | > 26 µM (inactive)
7 | CC(C)COCc1ccc(O)c2ncccc12 | < 0.1 µM
8 | COc1cc2c(cc1NC(=O)c1ccco1)CCCC2 | > 26 µM (inactive)
9 | CCCC(=O)NC(c1ccc(Cl)cc1)c1ccc2cccnc2c1O (stereo not given) | 3.44 µM
10 | Nc1nccnc1C(=O)Nc1nnc(SCc2ccc(Cl)cc2)s1 | > 26 µM (inactive)
11 | O=C(Nc1nnc(-c2ccco2)o1)c1ccc(Cl)cc1 | > 26 µM (inactive)
12 | O=C(Nc1nnc(CCc2ccccc2)s1)c1ccco1 | > 26 µM (inactive)
13 | COc1ccc(-c2nnc(NC(=O)c3ccc(F)cc3)o2)cc1 | > 26 µM (inactive)
14 | CCOC(=O)c1c(-c2ccccc2Cl)cn2ccccc12 | > 26 µM (inactive)
15 | CCCC(=O)NC(c1ccccc1)c1ccc2cccnc2c1O (stereo not given) | > 26 µM (inactive)
16 | c1ccc2c(c1)OCC(CNc1ncnc3sccc13)O2 (stereo not given) | > 12 µM (inactive)
17 | Cc1ccc(Nc2nc(N)c([N+](=O)[O-])c(N3CCC(C)CC3)n2)cc1C | > 26 µM (inactive)
18 | CCOC(=O)N1C(=O)C2(CCCCC2)N(c2ccc(C)cc2)C1=S | > 26 µM (inactive)
19 | CC(C)N1CCc2c(sc(NC(=O)c3nc4ccccc4s3)c2C(N)=O)C1 | > 26 µM (inactive)
20 | O=C(Nc1nnc(-c2ccc3c(c2)CCCC3)o1)c1ccc(Cl)cc1Cl | > 26 µM (inactive)
21 | O=C(NNC1=C(C(=O)C(F)(F)F)CCC1)c1ccc(Cl)cc1 | > 26 µM (inactive)
22 | Cc1ccc(/C=C/C(=O)c2ccccc(=O)c2O)cc1C | > 26 µM (inactive)
23 | O=C(Nc1nc(-c2ccccn2)cs1)c1ccc(Br)s1 | > 26 µM (inactive)
24 | Clc1ccc2c(c1)C(c1cccs1)=NNC(c1cccnc1)=N2 | > 26 µM (inactive)
25 | O=C1/C(=C\c2ccccc2)CCc2c1[nH]c1ccccc21 | > 26 µM (inactive)
